Assay results as given in US20230248850A1, “GOLD MOLECULAR CLUSTERS AND METHODS OF USING SAME FOR NEAR-INFRARED IMAGING” (The Board of Trustees of the Leland Stanford Junior …, priority 2022, published 2023).
Entries after “also recorded” stand apart in the source; their conditions may differ.

Legend:
[1] = test system: mice bearing syngeneic 4T1 murine breast tumors; experiment: NIR-II lymph node imaging after intra-/peri-tumoral injection, 4T1 tumors; assay type: in vivo, mouse
Protocol: For lymph node imaging, intra-tumor/peri-tumor administration (i.t.) of Au-PC clusters to mice (5-7 weeks old female Balb/c, n=3 in each group) bearing syngeneic 4T1 murine breast tumors and CT26 colon tumors inoculated on hindlimbs was performed. Several doses of Au-PC probes, including 4× (˜1.2 mg, tumors on both hindlimbs), 1× (˜300 μg, tumor on the right hindlimb) and ⅓× (˜100 μg, tumor on the right hindlimb) were administered (FIG. 3A, FIGS. 16 and 17). The draining inguinal lymph nodes (iLN) started to show NIR-II emission of Au-PC within ˜1 min p.i. and reached high brightness within ˜3 min p.i. (FIG. 3A, FIG. 17 for 4T1; FIG. 12A for CT26 tumor). The LN signal persisted for over 1 h in the draining iLNs (FIG. 3A) after reaching peak intensity at ˜30 min p.i., with a LN/background signal ratio ˜5-10 (FIG. 3D, FIG. 12D). […] The signal completely disappeared after […] p.i. of the Au-PC probe. The Au-PC clusters afforded rapid and effective imaging/detection of the primary tier draining LNs with much weaker signals in higher tier nodes.
3-9-week-old BALB/c female mice (weight: 15-20 g) were purchased from Charles River. The mice were housed on a 12-hour light/12-hour dark at ambient temperature =20-25° C. and humidity=50-65% in Stanford University's Veterinary Service Center. The bedding, nesting material, food and water were provided by the Stanford VSC facility. Prior to each experiment, the mice were shaved using hair-removing lotion (Nair, Softening Baby Oil). For in vivo imaging, the mice were anaesthetized by 2.5% isoflurane and oxygen as a carrying gas at a flow rate of 2 L/min. Per animal care protocols, the mice were carefully monitored during the imaging process and postrecovery period. The experimental groups consisted of n=3 mice. […]
The animal experiments and imaging in the NIR-II window were conducted in a two-dimensional, water-cooled 640×512 InGaAs array (Ninox 640, Raptor Photonics). […] NIR-II fluorescence images were recorded at 3 min, 10 min, 30 min, 1 h, 3 h, 6 h, 24 h, 48 h p.i.

[2] = test system: serum proteins (FBS); experiment: in vitro; assay type: in vitro ADME; conditions: bovine
Protocol: Evaluated next were the serum protein binding capabilities of Au-GSH cluster and Au-PC conjugate with FBS and compared to that of ICG. Briefly, the clusters and ICG were incubated with FBS for 1 h at 37° C. (FIG. 12). Afterwards, the solutions were filtered using Amicon 50 kDa centrifuge filters (FIGS. 12A and 12B). Au clusters bound to serum proteins will not pass filter while free unbound clusters will be lost to the filtrate. The optical density (OD) of filtrate (in case of Au-GSH and Au-PC) and retentate (in case of ICG) at 808 nm were measured and the corresponding serum protein binding efficiencies were calculated (FIG. 12C). The schematics of the experiments, figures, and absorbance values of Au-GSH+FBS and Au-PC+FBS filtrates as well as ICG+FBS retentate can be found in FIG. 12. The serum protein binding efficiencies for Au-GSH cluster, Au-PC conjugate and ICG were calculated to be 2.7%, 1.74% and 94.5%, respectively.

[3] = test system: Balb/c mice; experiment: NIR-II lymph node imaging after subcutaneous injection at tail base; assay type: in vivo, mouse; conditions: s.c. tail base
Protocol: Investigated next was LN draining post subcutaneous (s.c.) injection of the three probes at the mouse tail base (FIG. 5) (5-7 weeks old female Balb/c, n=3 in each group). The Au-PC clusters within 3 min p.i. migrated to the lymphatic vessels connecting the injection site to the draining iLN (FIG. 5A and FIG. 23). Strong signals in the iLN were seen up to 1 h and decreased by ˜40% 2 h p.i. (FIG. 5D). […] In contrast, upon ICG administration (FIG. 5C), the fluorescent signal in iLN appeared 3 min p.i. but with an intensity much lower compared to that of Au-PC probe at the same time postinjection (FIG. 5F). After 2-3 h p.i. (or even later) ICG signal in the iLN reached peak intensity and persisted. […] The retention of ICG at the injection site persisted over an extended period of time (FIG. 5F) much longer than Au-PC. The Au-PC molecular clusters were also unique with little retention at subcutaneous injection sites among various nanomaterials (with well-coated hydrophilic layers such as PEG) including quantum dots (QDs), carbon nanotubes (CNTs) and organic NIR II dyes^67,68. The trapping of NIR-II probes at the injection site and staining it for weeks is undesirable due to potential long-term side effects.
(§1) The animal experiments and imaging in the NIR-II window were conducted in a two-dimensional, water-cooled 640×512 InGaAs array (Ninox 640, Raptor Photonics). The clusters were excited by an 808-nm continuous-wave diode laser at a power density of 70 mW/cm^2. 1100 nm long-pass filter was used in all the imaging experiments unless stated otherwise. The fluorescent probes were administered through tail vein (intravenous, i.v.), tail base (subcutaneous, s.c.) and (peri)intratumoral (i.t.). NIR-II fluorescence images were recorded at 3 min, 10 min, 30 min, 1 h, 3 h, 6 h, 24 h, 48 h p.i.

[4] = Excretion by ICP-MS after intra-tumoral injection; assay type: in vivo, mouse; conditions: i.t. injection
Protocol: The biodistribution of probes was analyzed 10 min, 30 min, 24 h or 48 h postadministration. The urine, feces and major organs including the liver, spleen, heart, lungs, and kidneys were collected and digested in nitric acid (68%) for 12 h. Afterwards, the solutions were heated to 150° C. in the digestion solution (nitric acid:hydrogen peroxide=4:1) until transparent and colorless solution was obtained. The concentration of gold in each sample was measured by ICP-MS (Thermo Scientific ICAP 6300 Duo View Spectrometer).

[5] = test system: Balb/c mice; experiment: In vivo NIR-II fluorescence imaging after intravenous injection; design: species or system mouse; conditions: i.v. injection, up to 24 h p.i.
Protocol: In vivo, the Au-GSH and Au-PC clusters dissolved in PBS were first intravenously (i.v.) administered to mice (5-7 weeks old female Balb/c, n=3 in each group) through tail-vein injection, imaged in the >1100 nm NIR-II window and compared side by side with the clinically approved ICG dye. The bladder NIR-II signals in mice rapidly lit up, at ˜3 min postinjection (p.i) (FIG. 2A, 2B ventral view), as a consequence of kidney drainage for fast renal clearance (dorsal/lateral view images in FIGS. 13A and 14A, respectively).
as §1

For `CC1(C)C(/C=C/C=C/C=C/C=C2\N(CCCCS(=O)(=O)O)c3ccc4ccccc4c3C2(C)C)=[N+](CCCCS(=O)(=O)[O-])c2ccc3ccccc3c21` [ICG, indocyanine green], the “signal at tumor injection site 24 h p.i.” value ([1]; i.t. injection) was “significant signals were still detected at the tumor injection sites”, the “time of peak lymph node intensity” value ([1]; i.t. injection into 4T1 tumor) was 2 to 3 h and the “LN/background (LN/B) signal ratio” value ([1]; i.t. injection, 4T1 tumors, at peak intensity) was 4. For the same molecule, the fraction unbound at 1 h [2] was 0.055, the “signal retention at 24 h p.i.” value [3] was “significant signal still remained in the lymph node, at the injection site and in the liver” and the “time fluorescent signal in iLN appeared” value [3] was 3 min. For the same molecule, the “time of iLN signal peak” value [3] was 2 to 3 h, the excretion route [4] was “liver excretory system” and the “NIR-II signal distribution and retention in organs” value [5] was “strong NIR-II signals were observed in liver and intestine; also recorded: no significant ICG retention in major organs”.
